Measurements published in ChEMBL document CHEMBL1134300, “Oxindole-based inhibitors of cyclin-dependent kinase 2 (CDK2): design, synthesis, enzymatic activities, and X-ray crystallographic analysis” (J Med Chem, 2001).

Experiments:
[1] = biological target: Cyclin-dependent kinase 2 (Homo sapiens, UniProt P24941)
Description: Inhibitory activity against human cyclin-dependent kinase 2 (CDK2)

[2] = biological target: Cyclin-dependent kinase 1 (Homo sapiens, UniProt P06493)
Chain of Cyclin-dependent kinase 1 (P06493 whole entry): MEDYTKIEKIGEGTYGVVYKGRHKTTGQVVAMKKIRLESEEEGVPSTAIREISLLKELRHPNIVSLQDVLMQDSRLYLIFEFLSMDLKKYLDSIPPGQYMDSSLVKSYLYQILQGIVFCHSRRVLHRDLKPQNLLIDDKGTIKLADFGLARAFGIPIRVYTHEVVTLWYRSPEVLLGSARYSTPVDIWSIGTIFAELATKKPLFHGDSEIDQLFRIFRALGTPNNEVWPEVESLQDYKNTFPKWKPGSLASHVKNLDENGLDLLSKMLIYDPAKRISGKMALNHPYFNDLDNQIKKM
Description: Inhibitory activity against human cyclin-dependent kinase 1 (CDK1)

SMILES	IC50 [1]	IC50 [2]
NS(=O)(=O)c1ccc(NN=C2C(=O)Nc3ccc(C(=O)NCCCn4ccnc4)cc32)cc1 [GW290597X]	25 nM	230 nM
C/C(Nc1ccc(S(N)(=O)=O)cc1)=C1/C(=O)Nc2ccc(-c3cnco3)cc21	2 nM	7.1 nM
NS(=O)(=O)c1ccc(N/N=C2\C(=O)Nc3ccc4ncsc4c32)cc1	7.1 nM	43 nM
O=C1Nc2ccc3ncsc3c2/C1=C/Nc1ccc(S(=O)(=O)Nc2ccccc2)cc1	4.3 nM	41 nM
CS(=O)(=O)c1ccc(N/C=C2\C(=O)Nc3ccc4ncsc4c32)cc1	5.7 nM	39 nM
NS(=O)(=O)c1ccc(NN=C2C(=O)Nc3cc(Oc4ccccc4)ccc32)cc1	> 10000 nM	> 10000 nM
NS(=O)(=O)c1ccc(N/N=C2\C(=O)Nc3ccccc32)cc1	120 nM	1300 nM
